Earlier results, collected in patent US7083802B2, “Treatment of ocular disease” (Advanced Ocular Systems Limited, priority 2003, dated 2006).

What was measured:
[1] = reported in co-pending application Ser. No. 10/247,220

SMILES: C=CC[C@@H]1/C=C(\C)C[C@H](C)C[C@H](OC)[C@H]2O[C@@](O)(C(=O)C(=O)N3CCCC[C@H]3C(=O)O[C@H](/C(C)=C/[C@@H]3CC[C@@H](O)[C@H](OC)C3)[C@H](C)[C@@H](O)CC1=O)[C@H](C)C[C@@H]2OC [tacrolimus]
- Dose for administration without substantial toxicity [1]: 250 µg
- Clinical effect in atopic dermatitis (topical, doses 0.03%–0.3%, after 2–3 weeks treatment): significant clinical improvement
- Adverse effects of topical administration versus control (treatment of dermatoses, concentrations up to 0.3%): no significant difference in effects between treated and control groups
